The text below walks through data of ChEMBL document CHEMBL3045687, “Anti-microbial benzimidazole derivatives: synthesis and in vitro biological evaluation” (2012).

Common to all, as to type: functional
For one assay, the system named is Staphylococcus aureus. The assay is described as follows: Antimicrobial activity against Staphylococcus aureus assessed as zone of inhibition at 12.5 ug/ml after 18 to 24 hr by two-fold dilution technique relative to control.
Another assay relates to Candida albicans. The assay is described as follows: Antimicrobial activity against Candida albicans assessed as zone of inhibition at 25 ug/ml after 48 hr by two-fold dilution technique relative to control.
The next assay deals with Escherichia coli. The assay is described as follows: Antimicrobial activity against Escherichia coli assessed as zone of inhibition at 12.5 ug/ml after 18 to 24 hr by two-fold dilution technique relative to control.

As usually defined, the inhibition is the percentage by which the read-out fell short of the control. On to `COc1ccc(/C=C/c2nc3cc(Cl)ccc3[nH]2)cc1OC`, for which the inhibition at 12.5 µg/mL in the assay with Staphylococcus aureus stood at 75.2%; with Escherichia coli, 80.5%. Further, the inhibition at 25 µg/mL with Candida albicans came to 92.4%.

Take `COc1ccc(/C=C/c2nc3cc(Cl)ccc3[nH]2)c(OC)c1OC`: the figures for the inhibition at 12.5 µg/mL in the assay on Staphylococcus aureus and in the assay on Escherichia coli were 72.7% and 80.5%, respectively. The inhibition at 25 µg/mL in the assay on Candida albicans came to 93.1%.

As for `O=[N+]([O-])c1ccc(/C=C/c2nc3cc([N+](=O)[O-])ccc3[nH]2)cc1`, the inhibition at 12.5 µg/mL in the assay with Staphylococcus aureus is 69.7%; with Escherichia coli it was 77.1%. Besides, the inhibition at 25 µg/mL with Candida albicans was 75.3%.

For `OC(Cn1cncn1)(Cn1cncn1)c1ccc(F)cc1F` [FLUCONAZOLE], in the assay with Candida albicans (read-out: DIZ), the zone of inhibition at 25 µg/mL amounted to 13.4 mm.

Turning to `O=[N+]([O-])c1ccc2[nH]c(/C=C/c3ccc(O)cc3)nc2c1`, the inhibition at 12.5 µg/mL in the assay with Staphylococcus aureus was determined as 72.1%; in the assay with Escherichia coli, 76.9%. Further, the inhibition at 25 µg/mL in the assay with Candida albicans amounted to 75%.

For `O=[N+]([O-])c1ccc2[nH]c(/C=C/c3ccc(Cl)cc3)nc2c1`, the figures for the inhibition at 12.5 µg/mL in the assay on Staphylococcus aureus and with Escherichia coli were 82.1% and 80.7%, respectively. The inhibition at 25 µg/mL in the assay on Candida albicans worked out at 84.2%.

Take `O=C(O)c1cn(C2CC2)c2cc(N3CCNCC3)c(F)cc2c1=O` [CIPROFLOXACIN]: the zone of inhibition at 12.5 µg/mL is 14.4 mm with Staphylococcus aureus (read-out: DIZ) and 15.9 mm in the assay on Escherichia coli (read-out: DIZ).

For the molecule `Oc1ccc(/C=C/c2nc3cc(Cl)ccc3[nH]2)cc1`, the inhibition at 12.5 µg/mL with Staphylococcus aureus worked out at 70.8%; with Escherichia coli, 79.9%. Moreover, in the assay with Candida albicans, the inhibition at 25 µg/mL turned out to be 75.6%.

`COc1ccc(/C=C/c2nc3cc([N+](=O)[O-])ccc3[nH]2)c(OC)c1OC`: the inhibition at 12.5 µg/mL in the assay with Staphylococcus aureus is 75.2%; in the assay with Escherichia coli, 76.6%. For the same molecule, the inhibition at 25 µg/mL with Candida albicans came to 82.5%.

As for `Clc1ccc2[nH]c(/C=C/c3ccccc3)nc2c1`, the values for the inhibition at 12.5 µg/mL in the assay on Staphylococcus aureus and in the assay with Escherichia coli were 76.2% and 77.7%, respectively. Moreover, the inhibition at 25 µg/mL in the assay with Candida albicans is 88.5%.
